# Measurements: PubChem BioAssay (NCI)
#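 Abbreviation: GI50, concentration required for 50% inhibition of growth. TGI denotes the concentration required for complete inhibition of growth.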
# Legend:
# Assay in all cases: NCI tumour cell line growth inhibition, 384-well format
# UO-31 renal = system: UO-31 renal
# NCI/ADR-RES ovarian = system: NCI/ADR-RES ovarian
# SNB-19 CNS = system: SNB-19 CNS
# HOP-92 NSCLC = system: HOP-92 NSCLC
# PC-3 prostate = system: PC-3 prostate
# SF-268 CNS = system: SF-268 CNS
# HS 578T breast = system: HS 578T breast
# TK-10 renal = system: TK-10 renal
# MCF7 breast = system: MCF7 breast
# T-47D breast = system: T-47D breast
# UACC-62 melanoma = system: UACC-62 melanoma
# CAKI-1 renal = system: CAKI-1 renal
# MDA-MB-468 breast = system: MDA-MB-468 breast
# SK-MEL-2 melanoma = system: SK-MEL-2 melanoma
# HOP-62 NSCLC = system: HOP-62 NSCLC
# SF-295 CNS = system: SF-295 CNS
# OVCAR-4 ovarian = system: OVCAR-4 ovarian
# HCT-15 colon = system: HCT-15 colon
# UACC-257 melanoma = system: UACC-257 melanoma
# SF-539 CNS = system: SF-539 CNS
# DU-145 prostate = system: DU-145 prostate
# OVCAR-3 ovarian = system: OVCAR-3 ovarian
# 786-0 renal = system: 786-0 renal
# OVCAR-8 ovarian = system: OVCAR-8 ovarian
# CCRF-CEM leukemia = system: CCRF-CEM leukemia
# HL-60(TB) leukemia = system: HL-60(TB) leukemia
# U251 glioblastoma = system: U251 glioblastoma
# MDA-MB-231 breast = system: MDA-MB-231 breast
# NCI-H23 lung = system: NCI-H23 lung
# COLO 205 colon = system: COLO 205 colon
# IGROV1 ovarian = system: IGROV1 ovarian
# SN12C renal = system: SN12C renal
# SNB-75 CNS = system: SNB-75 CNS
# SK-OV-3 ovarian = system: SK-OV-3 ovarian
# MOLT-4 leukemia = system: MOLT-4 leukemia
# SK-MEL-5 melanoma = system: SK-MEL-5 melanoma
# NCI-H322M lung = system: NCI-H322M lung
# SW-620 colon = system: SW-620 colon
# M14 melanoma = system: M14 melanoma
# A498 renal = system: A498 renal
# EKVX NSCLC = system: EKVX NSCLC
# RXF 393 renal = system: RXF 393 renal
# K-562 leukemia = system: K-562 leukemia
# MALME-3M melanoma = system: MALME-3M melanoma
# HCT-116 colon = system: HCT-116 colon
# OVCAR-5 ovarian = system: OVCAR-5 ovarian
# HCC-2998 colon = system: HCC-2998 colon
# KM12 colon = system: KM12 colon
# NCI-H460 NSCLC = system: NCI-H460 NSCLC
# ACHN renal = system: ACHN renal
# NCI-H226 lung = system: NCI-H226 lung
# HT29 colon = system: HT29 colon
# SK-MEL-28 melanoma = system: SK-MEL-28 melanoma
# MDA-MB-435 melanoma = system: MDA-MB-435 melanoma
# RPMI-8226 leukemia = system: RPMI-8226 leukemia
# LOX IMVI melanoma = system: LOX IMVI melanoma
# A549 NSCLC = system: A549 NSCLC
# BT-549 breast = system: BT-549 breast
# NCI-H522 lung = system: NCI-H522 lung
smiles,measurement,setting,value
Cc1cc(C(=O)Nc2nc3cccc(Cl)c3n2[C@@H]2CCCCN(C(=O)/C=C/CN(C)C)C2)ccn1,GI50,UO-31 renal,2.05 µM
same,TGI,UO-31 renal,12.9 µM
same,GI50,NCI/ADR-RES ovarian,2.3 µM
same,TGI,NCI/ADR-RES ovarian,9.63 µM
same,GI50,SNB-19 CNS,3.49 µM
same,TGI,SNB-19 CNS,14.9 µM
same,GI50,HOP-92 NSCLC,2.93 µM
same,TGI,HOP-92 NSCLC,13.9 µM
same,GI50,PC-3 prostate,3.45 µM
same,TGI,PC-3 prostate,14.3 µM
same,GI50,SF-268 CNS,3.02 µM
same,TGI,SF-268 CNS,14 µM
same,GI50,HS 578T breast,1.62 µM
same,TGI,HS 578T breast,6.37 µM
same,GI50,TK-10 renal,0.494 µM
same,TGI,TK-10 renal,7.41 µM
same,GI50,MCF7 breast,2.51 µM
same,TGI,MCF7 breast,11.3 µM
same,GI50,T-47D breast,2.65 µM
same,TGI,T-47D breast,17.3 µM
same,GI50,UACC-62 melanoma,3.62 µM
same,TGI,UACC-62 melanoma,14.1 µM
same,GI50,CAKI-1 renal,1.44 µM
same,TGI,CAKI-1 renal,14.8 µM
same,GI50,MDA-MB-468 breast,0.111 µM
same,TGI,MDA-MB-468 breast,0.507 µM
same,GI50,SK-MEL-2 melanoma,2.43 µM
same,TGI,SK-MEL-2 melanoma,7.52 µM
same,GI50,HOP-62 NSCLC,1.93 µM
same,TGI,HOP-62 NSCLC,5.59 µM
same,GI50,SF-295 CNS,4.09 µM
same,TGI,SF-295 CNS,14.5 µM
same,GI50,OVCAR-4 ovarian,3.56 µM
same,TGI,OVCAR-4 ovarian,14.7 µM
same,GI50,HCT-15 colon,2.73 µM
same,TGI,HCT-15 colon,10.7 µM
same,GI50,UACC-257 melanoma,2.56 µM
same,TGI,UACC-257 melanoma,8.75 µM
same,GI50,SF-539 CNS,3.23 µM
same,TGI,SF-539 CNS,11 µM
same,GI50,DU-145 prostate,2.34 µM
same,TGI,DU-145 prostate,13.6 µM
same,GI50,OVCAR-3 ovarian,1.46 µM
same,TGI,OVCAR-3 ovarian,4.15 µM
same,GI50,786-0 renal,2.98 µM
same,TGI,786-0 renal,13.1 µM
same,GI50,OVCAR-8 ovarian,3.15 µM
same,TGI,OVCAR-8 ovarian,13.7 µM
same,GI50,CCRF-CEM leukemia,1.56 µM
same,TGI,CCRF-CEM leukemia,2.98 µM
same,GI50,HL-60(TB) leukemia,1.49 µM
same,TGI,HL-60(TB) leukemia,2.82 µM
same,GI50,U251 glioblastoma,2.61 µM
same,TGI,U251 glioblastoma,8.17 µM
same,GI50,MDA-MB-231 breast,4.34 µM
same,TGI,MDA-MB-231 breast,17 µM
same,GI50,NCI-H23 lung,2.83 µM
same,TGI,NCI-H23 lung,10.5 µM
same,GI50,COLO 205 colon,4.23 µM
same,TGI,COLO 205 colon,15.6 µM
same,GI50,IGROV1 ovarian,0.697 µM
same,TGI,IGROV1 ovarian,2.79 µM
same,GI50,SN12C renal,1.79 µM
same,TGI,SN12C renal,13.9 µM
same,GI50,SNB-75 CNS,5.5 µM
same,TGI,SNB-75 CNS,17.9 µM
same,GI50,SK-OV-3 ovarian,0.928 µM
same,TGI,SK-OV-3 ovarian,10.2 µM
same,GI50,MOLT-4 leukemia,1.4 µM
same,TGI,MOLT-4 leukemia,2.72 µM
same,GI50,SK-MEL-5 melanoma,1.71 µM
same,TGI,SK-MEL-5 melanoma,4.83 µM
same,GI50,NCI-H322M lung,0.367 µM
same,TGI,NCI-H322M lung,10.1 µM
same,GI50,SW-620 colon,2.93 µM
same,TGI,SW-620 colon,8.65 µM
same,GI50,M14 melanoma,2.75 µM
same,TGI,M14 melanoma,11.5 µM
same,GI50,A498 renal,1.45 µM
same,TGI,A498 renal,10.8 µM
same,GI50,EKVX NSCLC,0.648 µM
same,TGI,EKVX NSCLC,3.73 µM
same,GI50,RXF 393 renal,4.04 µM
same,TGI,RXF 393 renal,15.3 µM
same,GI50,K-562 leukemia,3.03 µM
same,TGI,K-562 leukemia,12.4 µM
same,GI50,MALME-3M melanoma,2.76 µM
same,TGI,MALME-3M melanoma,10.8 µM
same,GI50,HCT-116 colon,3.17 µM
same,TGI,HCT-116 colon,10.9 µM
same,GI50,OVCAR-5 ovarian,3.08 µM
same,TGI,OVCAR-5 ovarian,14.2 µM
same,GI50,HCC-2998 colon,2.44 µM
same,TGI,HCC-2998 colon,6.43 µM
same,GI50,KM12 colon,3.36 µM
same,TGI,KM12 colon,12.5 µM
same,GI50,NCI-H460 NSCLC,2.99 µM
same,TGI,NCI-H460 NSCLC,10.6 µM
same,GI50,ACHN renal,1.48 µM
same,TGI,ACHN renal,12.5 µM
same,GI50,NCI-H226 lung,3.39 µM
same,TGI,NCI-H226 lung,15.9 µM
same,GI50,HT29 colon,4.41 µM
same,TGI,HT29 colon,16.1 µM
same,GI50,SK-MEL-28 melanoma,7.02 µM
same,TGI,SK-MEL-28 melanoma,20.1 µM
same,GI50,MDA-MB-435 melanoma,3.35 µM
same,TGI,MDA-MB-435 melanoma,12.3 µM
same,GI50,RPMI-8226 leukemia,1.4 µM
same,TGI,RPMI-8226 leukemia,3.77 µM
same,GI50,LOX IMVI melanoma,2.24 µM
same,TGI,LOX IMVI melanoma,5.51 µM
same,GI50,A549 NSCLC,2.49 µM
same,TGI,A549 NSCLC,13.6 µM
same,GI50,BT-549 breast,2.66 µM
same,TGI,BT-549 breast,9.69 µM
same,GI50,NCI-H522 lung,0.12 µM
same,TGI,NCI-H522 lung,2.07 µM
